Results published in PubChem BioAssay (NCI).
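Grown in 96-well plates, cells were treated for 48 hours with each compound at five concentrations. Insufficient inhibition: endpoint recorded as highest concentration tested. GI50 is the concentration that inhibits growth by half. The concentration for full growth arrest is given as TGI.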

Assays:
Experiment in all cases: growth of human tumour cells (NCI), 48 h
K-562 leukemia = test system: K-562 leukemia
COLO 205 colon = test system: COLO 205 colon
MDA-MB-435 = test system: MDA-MB-435
M14 melanoma = test system: M14 melanoma
PC-3 prostate = test system: PC-3 prostate
NCI-H23 lung = test system: NCI-H23 lung
HCT-15 colon = test system: HCT-15 colon
HS 578T breast = test system: HS 578T breast
SK-OV-3 ovarian = test system: SK-OV-3 ovarian
CCRF-CEM leukemia = test system: CCRF-CEM leukemia

With COc1ccc(-c2ccc(-c3ccc(C(=N)N)o3)o2)cc1 the GI50 (K-562 leukemia) was 0.487 µM, the TGI (K-562 leukemia) was 2.12 µM and the GI50 (COLO 205 colon) was 1.25 µM. For the same compound, the TGI (COLO 205 colon) was 2.94 µM, the GI50 (MDA-MB-435) was 0.293 µM and the TGI (MDA-MB-435) was 1.12 µM. The GI50 (M14 melanoma) was 1.47 µM, the TGI (M14 melanoma) was 3.87 µM and the GI50 (PC-3 prostate) was 1.86 µM. It also gave a TGI (PC-3 prostate) of 7.07 µM, a GI50 (NCI-H23 lung) of 4.34 µM and a TGI (NCI-H23 lung) of 18.3 µM. It also gave a GI50 (HCT-15 colon) of 0.675 µM, a TGI (HCT-15 colon) of 4.72 µM and a GI50 (HS 578T breast) of 4.33 µM. For the same compound, the TGI (HS 578T breast) was 18.4 µM, the GI50 (SK-OV-3 ovarian) was 5.63 µM and the TGI (SK-OV-3 ovarian) was 18.7 µM. The GI50 (CCRF-CEM leukemia) was 1.84 µM and the TGI (CCRF-CEM leukemia) was 6.75 µM.
OCC#Cc1ccccc1C#CCCCCCC#Cc1ccccc1C#CCO was tested, and the GI50 (K-562 leukemia) was 22.4 µM, the TGI (K-562 leukemia) was 57.7 µM and the GI50 (COLO 205 colon) was 22.8 µM. It also gave a TGI (COLO 205 colon) of 72.2 µM, a GI50 (MDA-MB-435) of 18.8 µM and a TGI (MDA-MB-435) of 36.1 µM. The GI50 (M14 melanoma) was 15.4 µM, the TGI (M14 melanoma) was 29.2 µM and the GI50 (PC-3 prostate) was 18.1 µM. The TGI (PC-3 prostate) was 38.8 µM, the GI50 (NCI-H23 lung) was 18.4 µM and the TGI (NCI-H23 lung) was 33.6 µM. It also gave a GI50 (HCT-15 colon) of 15.9 µM, a TGI (HCT-15 colon) of 30.7 µM and a GI50 (HS 578T breast) of 21.7 µM. For the same compound, the TGI (HS 578T breast) was 43.7 µM, the GI50 (SK-OV-3 ovarian) was 31 µM and the TGI (SK-OV-3 ovarian) was > 100 µM. The GI50 (CCRF-CEM leukemia) was 22.9 µM and the TGI (CCRF-CEM leukemia) was 49.6 µM.
CCCCCCCc1cc2c3c(nc4ccccc42)C(=O)c2cccnc2-c3n1 was tested, and the GI50 (K-562 leukemia) was 1.29 µM, the TGI (K-562 leukemia) was > 24.2 µM and the GI50 (COLO 205 colon) was 5.05 µM. For the same compound, the TGI (COLO 205 colon) was 9.59 µM, the GI50 (MDA-MB-435) was 1.96 µM and the TGI (MDA-MB-435) was 4.33 µM. For the same compound, the GI50 (M14 melanoma) was 2.5 µM, the TGI (M14 melanoma) was 6.9 µM and the GI50 (PC-3 prostate) was 4.39 µM. The TGI (PC-3 prostate) was 10.9 µM, the GI50 (NCI-H23 lung) was 10.8 µM and the TGI (NCI-H23 lung) was 25.6 µM. The GI50 (HCT-15 colon) was 0.97 µM, the TGI (HCT-15 colon) was 5.58 µM and the GI50 (HS 578T breast) was 4.86 µM. The TGI (HS 578T breast) was 11.6 µM, the GI50 (SK-OV-3 ovarian) was 15.3 µM and the TGI (SK-OV-3 ovarian) was 28.6 µM. The GI50 (CCRF-CEM leukemia) was 1.62 µM and the TGI (CCRF-CEM leukemia) was 7.66 µM.
Work on CN(Cc1cc(C(C)(C)C)cc(Br)c1O)Cc1cc(C(C)(C)C)cc(Br)c1O yielded a TGI (K-562 leukemia) of 14 µM, a TGI (COLO 205 colon) of 28.4 µM and a TGI (MDA-MB-435) of 15.9 µM. For the same compound, the TGI (M14 melanoma) was 14.9 µM, the TGI (PC-3 prostate) was 9.32 µM and the TGI (NCI-H23 lung) was 9.88 µM. For the same compound, the TGI (HCT-15 colon) was 12.1 µM, the TGI (HS 578T breast) was 7.65 µM and the TGI (SK-OV-3 ovarian) was 22.2 µM. The TGI (CCRF-CEM leukemia) was 10.4 µM.
In the case of Cc1cnc(C(=O)NNc2nc3sc4c(c3c(=O)n2C)C(C)CCC4)cn1 (centres undefined), the GI50 (K-562 leukemia) is reported as 0.433 µM, the TGI (K-562 leukemia) is reported as > 100 µM and the GI50 (COLO 205 colon) is reported as 0.296 µM. For the same compound, the TGI (COLO 205 colon) was 1.33 µM, the GI50 (MDA-MB-435) was 0.751 µM and the TGI (MDA-MB-435) was 7.26 µM. For the same compound, the GI50 (M14 melanoma) was 0.284 µM, the TGI (M14 melanoma) was 2.43 µM and the GI50 (PC-3 prostate) was 0.465 µM. The TGI (PC-3 prostate) was 11.2 µM, the GI50 (NCI-H23 lung) was 0.719 µM and the TGI (NCI-H23 lung) was 10.3 µM. The GI50 (HCT-15 colon) was 0.268 µM, the TGI (HCT-15 colon) was 11.8 µM and the GI50 (HS 578T breast) was 1.56 µM. For the same compound, the TGI (HS 578T breast) was 17.1 µM, the GI50 (SK-OV-3 ovarian) was 0.628 µM and the TGI (SK-OV-3 ovarian) was 5.01 µM. For the same compound, the GI50 (CCRF-CEM leukemia) was 0.245 µM.
Work on Cc1ncc(C(=O)Nc2ccc(CN3CCN(C)CC3)c(C(F)(F)F)c2)cc1C#Cc1cnc(N)cc1C#N yielded a GI50 (K-562 leukemia) of 0.00167 µM, a TGI (K-562 leukemia) of 3.21 µM and a GI50 (COLO 205 colon) of 0.0538 µM. The TGI (COLO 205 colon) was 2.32 µM, the GI50 (MDA-MB-435) was 0.084 µM and the TGI (MDA-MB-435) was 1.61 µM. For the same compound, the GI50 (M14 melanoma) was 0.049 µM, the TGI (M14 melanoma) was 0.4 µM and the GI50 (PC-3 prostate) was 0.71 µM. For the same compound, the TGI (PC-3 prostate) was 3.48 µM, the GI50 (NCI-H23 lung) was 0.707 µM and the TGI (NCI-H23 lung) was 3.21 µM. For the same compound, the GI50 (HCT-15 colon) was 0.548 µM, the TGI (HCT-15 colon) was 2.71 µM and the GI50 (HS 578T breast) was 0.204 µM. The TGI (HS 578T breast) was 1.72 µM, the GI50 (SK-OV-3 ovarian) was 0.401 µM and the TGI (SK-OV-3 ovarian) was 1.8 µM. For the same compound, the GI50 (CCRF-CEM leukemia) was 0.549 µM and the TGI (CCRF-CEM leukemia) was 3.2 µM.
